Laboratory results: US20140242093A1, “METHODS AND COMPOSITIONS FOR MODULATING THE INNATE IMMUNE RESPONSE AND/OR MYOGENESIS IN A MAMMALIAN SUBJECT” (FRED HUTCHINSON CANCER RESEARCH CENTER, priority 2011, published 2014)

Tested on: control human primary myoblasts
Experiment: Expression microarray of primary myoblasts transduced with lentivirus carrying DUX4-fl, DUX4-s or GFP
Protocol: Primary human myoblasts were collected and cultured as previously described (Snider et al., 2010). Primary myoblasts were maintained at or below 70% confluency for proliferation. For differentiation, cells were allowed to reach 95-100% confluency in growth medium. Once confluency was reached, the cells were changed to differentiation medium (F10 media supplemented with 1% horse serum, 10 μg/mL insulin, and 10 μg/mL transferrin, penicillin/streptomycin) and maintained for 4 days. Human RD cells were grown in DMEM in 10% bovine calf serum (Hyclone) and penicillin/streptomycin. The primary myoblasts were transduced with lentivirus carrying DUX-fl, DUX4- or GFP (MOI=15).
Expression microarrays were performed on the transduced cells at 24 hours after transduction as follows. […] Samples were analyzed by Illumina Human Whole Genome microarrays. Probe intensities were corrected, normalized, and summarized by the Lumi package of Bioconductor (Du et al., 2008). Differentially expressed genes were identified by the LIMMA package of Bioconductor (Wettenhall and Smyth, 2004). Gene set enrichment analysis (GSEA) was performed using the Bioconductor GOstats package (Falcon and Gentleman, 2007).

DUX4-fl: full-length DUX4 protein (SEQ ID NO:110), expressed from lentiviral or pCS2 vectors or in vitro translated
full_fc PRAMEF13 (log2 fc vs lenti-GFP, 24 h): 7.422 | full_fc PRAMEF15 (log2 fc vs lenti-GFP, 24 h): 7 | full_fc PRAMEF17 (log2 fc vs lenti-GFP, 24 h): 4.223 | full_fc PRAMEF20 (log2 fc vs lenti-GFP, 24 h): 4.795 | full_fc RFPL1 (log2 fc vs lenti-GFP, 24 h): 6.264 | full_fc RFPL1S (log2 fc vs lenti-GFP, 24 h): 8.396 | full_fc RFPL2 (log2 fc vs lenti-GFP, 24 h): 7.293 | full_fc RFPL3 (log2 fc vs lenti-GFP, 24 h): 8.144 | full_fc RFPL4A (log2 fc vs lenti-GFP, 24 h): 4.348 | full_fc RFPL4B (log2 fc vs lenti-GFP, 24 h): 8.34 | full_fc RN5S9 (log2 fc vs lenti-GFP, 24 h): 4.191 | full_fc SFRS2B (log2 fc vs lenti-GFP, 24 h): 4.215 | full_fc SLC34A2 (log2 fc vs lenti-GFP, 24 h): 5.514 | full_fc SPRYD5 (log2 fc vs lenti-GFP, 24 h): 8.045 | full_fc THOC4 (log2 fc vs lenti-GFP, 24 h): 4.035 | full_fc TPRX1 (log2 fc vs lenti-GFP, 24 h): 4.483 | full_fc TRIM43 (log2 fc vs lenti-GFP, 24 h): 5.806 | full_fc TRIM48 (log2 fc vs lenti-GFP, 24 h): 7.88 | full_fc TRIM49 (log2 fc vs lenti-GFP, 24 h): 6.551 | full_fc TRIM53 (log2 fc vs lenti-GFP, 24 h): 4.778 | full_fc TRIM64 (log2 fc vs lenti-GFP, 24 h): 4.943 | full_fc ZNF217 (log2 fc vs lenti-GFP, 24 h): 4.114 | full_fc ZNF296 (log2 fc vs lenti-GFP, 24 h): 5.536 | full_fc ZNF705A (log2 fc vs lenti-GFP, 24 h): 6.832 | full_fc ZSCAN4 (log2 fc vs lenti-GFP, 24 h): 8.322 | number of genes increased 32-fold or more (log 2fc≧5): 72 genes | Log2 Fc AMACR (vs lenti-GFP, 24 h): 2.7 log2 | Log2 Fc ARIH1 (vs lenti-GFP, 24 h): 2.2 log2 | Log2 Fc ARS2 (vs lenti-GFP, 24 h): 2.6 log2 | Log2 Fc CBARA1 (vs lenti-GFP, 24 h): 2.1 log2 | Log2 Fc CD24 (vs lenti-GFP, 24 h): 2.6 log2 | Log2 Fc CSAG3 (vs lenti-GFP, 24 h): 5.9 log2 | Log2 Fc CSE1L (vs lenti-GFP, 24 h): 2.9 log2 | Log2 Fc CWC15 (vs lenti-GFP, 24 h): 2.6 log2 | Log2 Fc CXADR (vs lenti-GFP, 24 h): 2.5 log2 | Log2 Fc CXCR4 (vs lenti-GFP, 24 h): 2.0 log2 | Log2 Fc DBR1 (vs lenti-GFP, 24 h): 3.4 log2 | Log2 Fc DEFB103B (vs lenti-GFP, 24 h): 6.4 log2 | Log2 Fc FBXO33 (vs lenti-GFP, 24 h): 3.2 log2 | Log2 Fc FGFR3 (vs lenti-GFP, 24 h): 3.1 log2 | Log2 Fc FLJ45337 (vs lenti-GFP, 24 h): 3.7 log2 | Log2 Fc GTF2F1 (vs lenti-GFP, 24 h): 3.2 log2 | Log2 Fc HNRNPCL1 (vs lenti-GFP, 24 h): 3.5 log2 | Log2 Fc HOXB2 (vs lenti-GFP, 24 h): 2.2 log2 | Log2 Fc HSPA2 (vs lenti-GFP, 24 h): 3.7 log2 | Log2 Fc ID2 (vs lenti-GFP, 24 h): 2.3 log2 | Log2 Fc IFRD1 (vs lenti-GFP, 24 h): 3.0 log2 | Log2 Fc JUP (vs lenti-GFP, 24 h): 3.2 log2 | Log2 Fc KHDC1L (vs lenti-GFP, 24 h): 8.0 log2 | Log2 Fc MBD3L2 (vs lenti-GFP, 24 h): 7.6 log2 | Log2 Fc MED26 (vs lenti-GFP, 24 h): 2.1 log2 | Log2 Fc MGC10997 (vs lenti-GFP, 24 h): 2.4 log2 | Log2 Fc PABPN1 (vs lenti-GFP, 24 h): 2.6 log2 | Log2 Fc PELI1 (vs lenti-GFP, 24 h): 2.9 log2 | Log2 Fc PNMA6B (vs lenti-GFP, 24 h): 3.6 log2 | Log2 Fc PRAMEF1 (vs lenti-GFP, 24 h): 8.1 log2 | Log2 Fc PVRL3 (vs lenti-GFP, 24 h): 2.2 log2 | Log2 Fc RMRP (vs lenti-GFP, 24 h): 2.3 log2 | Log2 Fc RNGTT (vs lenti-GFP, 24 h): 2.0 log2 | Log2 Fc RPPH1 (vs lenti-GFP, 24 h): 2.0 log2 | Log2 Fc RRN3 (vs lenti-GFP, 24 h): 2.1 log2 | Log2 Fc SFRS2B (vs lenti-GFP, 24 h): 4.2 log2 | Log2 Fc SFRS17A (vs lenti-GFP, 24 h): 2.5 log2 | Log2 Fc SIAH1 (vs lenti-GFP, 24 h): 3.7 log2 | Log2 Fc SLC2A14 (vs lenti-GFP, 24 h): 2.4 log2 | Log2 Fc SLC34A2 (vs lenti-GFP, 24 h): 5.5 log2 | Log2 Fc SNIP1 (vs lenti-GFP, 24 h): 2.1 log2 | Log2 Fc SON (vs lenti-GFP, 24 h): 2.1 log2 | Log2 Fc SPRYD5 (vs lenti-GFP, 24 h): 8.0 log2 | Log2 Fc SPTY2D1 (vs lenti-GFP, 24 h): 3.3 log2 | Log2 Fc TFIP11 (vs lenti-GFP, 24 h): 3.2 log2 | Log2 Fc THOC4 (vs lenti-GFP, 24 h): 4.0 log2 | Log2 Fc TPRX1 (vs lenti-GFP, 24 h): 4.5 log2 | Log2 Fc TRIM23 (vs lenti-GFP, 24 h): 2.2 log2 | Log2 Fc TRIM43 (vs lenti-GFP, 24 h): 5.8 log2 | Log2 Fc USP29 (vs lenti-GFP, 24 h): 2.6 log2 | Log2 Fc ZNF217 (vs lenti-GFP, 24 h): 4.1 log2 | Log2 Fc ZNF705A (vs lenti-GFP, 24 h): 6.8 log2 | Log2 Fc ZNHIT6 (vs lenti-GFP, 24 h): 3.5 log2 | Log2 Fc ZSCAN2 (vs lenti-GFP, 24 h): 2.2 log2 | Log2 Fc ZSCAN4 (vs lenti-GFP, 24 h): 8.3 log2
